Measured values reported in paper PMC9395488, “First-in-human study of IM156, a novel potent biguanide oxidative phosphorylation (OXPHOS) inhibitor, in patients with advanced solid tumors” (Investigational New Drugs, 2022).

Test system: patients with advanced solid tumors
Assay: First-in-human phase 1 dose-escalation study: safety, DLTs, adverse events
Assay type: in vivo
Source text: This multicenter first-in-human dose-escalation phase 1 study (clinicaltrials.gov identifier: NCT03272256) was designed to determine the MTD or RP2D and to evaluate the safety and tolerability of IM156. Secondary endpoints included PK characteristics, efficacy assessment (objective response rate [ORR], disease control rate [DCR], duration of response [DoR] and progression-free survival [PFS]). Furthermore, exploratory objectives included identification and profiling of IM156 metabolites, evaluations of exploratory PD markers of IM156, and evaluations of any potential relationship between putative biomarkers and safety/efficacy parameters of IM156. The study was conducted in accordance with Good Clinical Practice, the International Council for Harmonisation, and guidelines governing clinical study conduct and the ethical principles originating from the Declaration of Helsinki. The study was approved by each Institutional Review Board and patients provided written informed consent. Patients were enrolled at three sites in South Korea.
The initial dose and schedule of IM156 was chosen based on animal toxicology studies. […] IM156 was administered in the fasted state, with no food for at least 2 h before and 1 h after dosing.
Three DLT-evaluable patients were enrolled at each dose level. If there were no DLTs or other prohibitive adverse events (AEs), the Safety Committee was allowed to recommend escalation to the next highest dose level. If 1 DLT occurred in the first 3 DLT-evaluable patients, enrollment in that cohort was expanded to an additional 3 DLT-evaluable patients; if ≥ 2 DLTs were reported in a cohort, that dose was considered above the MTD.
Safety was assessed through vital signs, weight, laboratory assessments, physical examinations, electrocardiogram, and reporting of AEs as graded by the National Cancer Institute’s Common Terminology Criteria for Adverse Events v4.03 (NCI-CTCAE).
DLTs were defined as the following AEs if they were attributed as related to IM156: asymptomatic grade 4 neutropenia lasting for ≥ 5 days; febrile neutropenia, regardless of grade; grade 4 thrombocytopenia or grade 3 thrombocytopenia with bleeding; any grade ≥ 3 non-hematologic AE (except grade 3 hypertension and grade 3 nausea, vomiting or diarrhea for which proper measures for prevention and treatment were not implemented, and alopecia); blood lactate levels > 5 mmol; grade ≥ 2 AE prohibiting dosing of IM156 for ≥ 21 continuous days except for alterations in serum calcium or phosphorus levels. The safety analysis includes all patients who received at least one dose of study drug.
The safety population was defined as all patients who received at least one dose of IM156. The PK population was not defined in the protocol but included all patients with sufficient PK data to perform adequate PK modeling. The efficacy population included all patients who underwent at least one tumor imaging assessment while receiving IM156. Safety was assessed using descriptive statistics (e.g., DLTs, AEs, laboratory tests, physical examination, 12-lead ECG). The incidence and number of events were reported for the DLTs observed in Cycle 1 per dose group. […] Adverse events and TRAEs were standardized with the System Organ Class and the Preferred Term using the Medical Dictionary for Regulatory Activities v23.0. In addition, TEAEs, serious adverse events (SAEs), TEAE severity, and TEAEs leading to withdrawal were presented by dose group. Efficacy data were to be presented by Waterfall and Swim Lane plots. Time to event endpoints (e.g., DoR, PFS) were determined using Kaplan–Meier estimations with the median value for each endpoint summarized.

[1] = DL5 1200 mg orally every other day (n=3)

NC(=Nc1ccc(OC(F)(F)F)cc1)N=C(N)N1CCCC1 [IM156]
0: TEAE Dry skin grade 1 [1] | TEAE Dry skin grade 2 [1] | TEAE Dry skin grade 3 [1] | TEAE Dry skin grade 4 [1] | TEAE Flank pain grade 1 [1] | TEAE Flank pain grade 2 [1] | TEAE Flank pain grade 3 [1] | TEAE Flank pain grade 4 [1] | TEAE Hypertension grade 1 [1] | TEAE Hypertension grade 2 [1] | TEAE Hypertension grade 3 [1] | TEAE Hypertension grade 4 [1] | TEAE Hypotension grade 1 [1] | TEAE Hypotension grade 3 [1] | TEAE Hypotension grade 4 [1] | TEAE Insomnia grade 1 [1] | TEAE Insomnia grade 2 [1] | TEAE Insomnia grade 3 [1] | TEAE Insomnia grade 4 [1] | TEAE Pain in extremity grade 1 [1] | TEAE Pain in extremity grade 2 [1] | TEAE Pain in extremity grade 3 [1] | TEAE Pain in extremity grade 4 [1] | TEAE Pruritus grade 1 [1] | TEAE Pruritus grade 2 [1] | TEAE Pruritus grade 3 [1] | TEAE Pruritus grade 4 [1] | TEAE Psychiatric disorders grade 1 [1] | TEAE Psychiatric disorders grade 2 [1] | TEAE Psychiatric disorders grade 3 [1] | TEAE Psychiatric disorders grade 4 [1] | TEAE Purpura grade 1 [1] | TEAE Purpura grade 2 [1] | TEAE Purpura grade 3 [1] | TEAE Purpura grade 4 [1] | TEAE Urinary retention grade 1 [1] | TEAE Urinary retention grade 2 [1] | TEAE Urinary retention grade 3 [1] | TEAE Urinary retention grade 4 [1] | TEAE Urinary tract disorder grade 1 [1] | TEAE Urinary tract disorder grade 2 [1] | TEAE Urinary tract disorder grade 3 [1] | TEAE Urinary tract disorder grade 4 [1] | TRAE Abdominal Pain, > G3 (patients) (DL6 800 mg QD, N = 3) | TRAE Abdominal Pain, All grades (patients) (DL6 800 mg QD, N = 3) | TRAE Blood Lactic Acid increased, > G3 (patients) (DL6 800 mg QD, N = 3) | TRAE Constipation, > G3 (patients) (DL6 800 mg QD, N = 3) | TRAE Decreased appetite, > G3 (patients) (DL6 800 mg QD, N = 3) | TRAE Decreased appetite, All grades (patients) (DL6 800 mg QD, N = 3) | TRAE Diarrhoea, > G3 (patients) (DL6 800 mg QD, N = 3) | TRAE Fatigue, > G3 (patients) (DL6 800 mg QD, N = 3) | TRAE Fatigue, All grades (patients) (DL6 800 mg QD, N = 3) | TRAE Insomnia, > G3 (patients) (DL6 800 mg QD, N = 3) | TRAE Insomnia, All grades (patients) (DL6 800 mg QD, N = 3) | TRAE Nausea, > G3 (patients) (DL6 800 mg QD, N = 3) | TRAE Vomiting, > G3 (patients) (DL6 800 mg QD, N = 3) | TEAE Adrenal insufficiency grade 1 (DL6 800 mg orally daily (n=3)) | TEAE Adrenal insufficiency grade 2 (DL6 800 mg orally daily (n=3)) | TEAE Adrenal insufficiency grade 3 (DL6 800 mg orally daily (n=3)) | TEAE Adrenal insufficiency grade 4 (DL6 800 mg orally daily (n=3)) | TEAE Anaemia grade 1 (DL6 800 mg orally daily (n=3)) | TEAE Anaemia grade 2 (DL6 800 mg orally daily (n=3)) | TEAE Anaemia grade 3 (DL6 800 mg orally daily (n=3)) | TEAE Anaemia grade 4 (DL6 800 mg orally daily (n=3)) | TEAE Appendicitis perforated grade 1 (DL6 800 mg orally daily (n=3)) | TEAE Appendicitis perforated grade 2 (DL6 800 mg orally daily (n=3)) | TEAE Appendicitis perforated grade 3 (DL6 800 mg orally daily (n=3)) | TEAE Appendicitis perforated grade 4 (DL6 800 mg orally daily (n=3)) | TEAE Back pain grade 1 (DL6 800 mg orally daily (n=3)) | TEAE Back pain grade 2 (DL6 800 mg orally daily (n=3)) | TEAE Back pain grade 3 (DL6 800 mg orally daily (n=3)) | TEAE Back pain grade 4 (DL6 800 mg orally daily (n=3)) | TEAE Cystitis grade 1 (DL6 800 mg orally daily (n=3)) | TEAE Cystitis grade 2 (DL6 800 mg orally daily (n=3)) | TEAE Cystitis grade 3 (DL6 800 mg orally daily (n=3)) | TEAE Cystitis grade 4 (DL6 800 mg orally daily (n=3)) | TEAE Dry skin grade 1 (DL6 800 mg orally daily (n=3)) | TEAE Dry skin grade 2 (DL6 800 mg orally daily (n=3)) | TEAE Dry skin grade 3 (DL6 800 mg orally daily (n=3)) | TEAE Dry skin grade 4 (DL6 800 mg orally daily (n=3)) | TEAE Flank pain grade 1 (DL6 800 mg orally daily (n=3)) | TEAE Flank pain grade 2 (DL6 800 mg orally daily (n=3)) | TEAE Flank pain grade 3 (DL6 800 mg orally daily (n=3)) | TEAE Flank pain grade 4 (DL6 800 mg orally daily (n=3)) | TEAE Hypertension grade 1 (DL6 800 mg orally daily (n=3)) | TEAE Hypertension grade 2 (DL6 800 mg orally daily (n=3)) | TEAE Hypertension grade 3 (DL6 800 mg orally daily (n=3)) | TEAE Hypertension grade 4 (DL6 800 mg orally daily (n=3)) | TEAE Hypotension grade 1 (DL6 800 mg orally daily (n=3)) | TEAE Hypotension grade 2 (DL6 800 mg orally daily (n=3)) | TEAE Hypotension grade 3 (DL6 800 mg orally daily (n=3)) | TEAE Hypotension grade 4 (DL6 800 mg orally daily (n=3)) | TEAE Insomnia grade 2 (DL6 800 mg orally daily (n=3)) | TEAE Insomnia grade 3 (DL6 800 mg orally daily (n=3)) | TEAE Insomnia grade 4 (DL6 800 mg orally daily (n=3)) | TEAE Pain in extremity grade 1 (DL6 800 mg orally daily (n=3)) | TEAE Pain in extremity grade 2 (DL6 800 mg orally daily (n=3)) | TEAE Pain in extremity grade 3 (DL6 800 mg orally daily (n=3))
3: TEAE Diarrhoea, grade 1 (DL6 800 mg QD (n=3)) | TRAE Diarrhoea, All grades (patients) (DL6 800 mg QD, N = 3)
1: TEAE Hypotension grade 2 [1] | TEAE Abdominal discomfort, grade 1 (DL6 800 mg QD (n=3)) | TEAE Alanine aminotransferase increased, grade 1 (DL6 800 mg QD (n=3)) | TEAE Aspartate aminotransferase increased, grade 1 (DL6 800 mg QD (n=3)) | TEAE Blood lactic acid increased, grade 1 (DL6 800 mg QD (n=3)) | TEAE Decreased appetite, grade 1 (DL6 800 mg QD (n=3)) | TEAE Fatigue, grade 1 (DL6 800 mg QD (n=3)) | TEAE Gastrointestinal pain, grade 1 (DL6 800 mg QD (n=3)) | TEAE Toothache, grade 1 (DL6 800 mg QD (n=3)) | TEAE Vomiting, grade 1 (DL6 800 mg QD (n=3)) | TRAE Blood Lactic Acid increased, All grades (patients) (DL6 800 mg QD, N = 3) | TRAE Constipation, All grades (patients) (DL6 800 mg QD, N = 3) | TRAE Vomiting, All grades (patients) (DL6 800 mg QD, N = 3) | TEAE Insomnia grade 1 (DL6 800 mg orally daily (n=3))
2: TEAE Constipation, grade 1 (DL6 800 mg QD (n=3)) | TEAE Nausea, grade 1 (DL6 800 mg QD (n=3)) | TRAE Nausea, All grades (patients) (DL6 800 mg QD, N = 3)
